From ChEMBL document CHEMBL4732147, “A novel [5.2.1]bicyclic amine is a potent analgesic without µ opioid activity” (Bioorg Med Chem Lett, 2021)
Calls of active or inactive are those of the source. The rule behind the calls is not given here.

Columns and labels:
Mus musculus [1] = test: Analgesic activity in sc dosed ddY mouse assessed as protection against acetic acid-induced writhing; type: functional
Mus musculus [2] = test: Analgesic activity in ddY mouse assessed as protection against acetic acid-induced writhing at 30 mg/kg, sc relative to control; type: functional
Mu-type opioid receptor [3] = molecular target: T1, Mu-type opioid receptor (Homo sapiens, UniProt P35372); test: Agonist activity at human Gi/G0-coupled mu opioid receptor expressed in human U2OS cells co-expressing EA-tagged beta-arrestin2 assessed as beta-arrestin 2 recruitment by PathHunter assay; type: cell-based
T1 sequence (P35372 whole entry): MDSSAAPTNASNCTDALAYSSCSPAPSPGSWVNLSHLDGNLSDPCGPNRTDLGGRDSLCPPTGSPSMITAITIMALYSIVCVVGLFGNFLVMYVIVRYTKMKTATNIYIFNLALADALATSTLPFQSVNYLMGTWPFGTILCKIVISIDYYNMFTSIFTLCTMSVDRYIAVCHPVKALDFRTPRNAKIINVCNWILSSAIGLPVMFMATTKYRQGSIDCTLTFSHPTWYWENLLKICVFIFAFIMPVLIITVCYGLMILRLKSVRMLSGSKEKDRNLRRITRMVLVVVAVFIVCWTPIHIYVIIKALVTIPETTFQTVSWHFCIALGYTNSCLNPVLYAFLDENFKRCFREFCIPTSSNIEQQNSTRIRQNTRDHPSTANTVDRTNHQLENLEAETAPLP

[4] = Plasma concentration in ddY mouse at 30 mg/kg, sc; type: ADME, organism-based; conditions: in vivo; also: time not given here
[5] = Drug concentration in ddY mouse brain at 30 mg/kg, sc; type: ADME, organism-based; conditions: in vivo, read-out: Ct; also: time not given here
Mus musculus [6] = test: Analgesic activity in sc dosed ddY mouse assessed as tail flicking; type: functional
Mus musculus [7] = test: Analgesic activity in ddY mouse assessed as tail flicking at 30 mg/kg, sc relative to control; type: functional
[8] = Toxicity in sc dosed ddY mouse assessed as effect on locomotor activity; type: organism-based; conditions: in vivo
[9] = Toxicity in ddY mouse assessed as hyperactivity at 10 mg/kg, sc; type: organism-based; conditions: in vivo
[10] = Drug concentration in ddY mouse brain at 10 mg/kg; type: ADME, organism-based; conditions: in vivo, read-out: Ct; also: time not given here
Mus musculus [11] = test: Analgesic activity in ddY mouse assessed as tail flicking at 300 mg/kg, sc; type: functional, organism-based
Mus musculus [12] = test: Analgesic activity in ddY mouse assessed as protection against acetic acid-induced writhing at 3 mg/kg, sc relative to control; type: functional
Cytochrome P450 = test: Metabolic stability in human cytochrome P450 assessed as parent compound remaining; type: ADME, protein assay; also: time not given here
[13] = Metabolic stability in mouse cytochrome P450 assessed as parent compound remaining; type: ADME; also: time not given here
[14] = Lipophilicity, log D of compound; type: physicochemical; conditions: octanol/water
[15] = Permeability of compound by PAMPA; type: ADME
[16] = Protein binding in mouse; type: ADME, organism-based; conditions: in vivo, read-out: PB (converted)
[17] = Half life in mouse at 10 mg/kg; type: ADME, organism-based; conditions: in vivo
[18] = Clearance in mouse at 10 mg/kg; type: ADME, organism-based; conditions: in vivo
[19] = Apparent clearance in mouse at 10 mg/kg; type: ADME, organism-based; conditions: in vivo
[20] = Oral bioavailability in mouse at 10 mg/kg; type: ADME, organism-based; conditions: in vivo
Mu-type opioid receptor [21] = molecular target: T1, Mu-type opioid receptor; test: Binding affinity to mu opioid receptor (unknown origin)

Row | Structure (SMILES) | ED50 (Mus musculus [1]) | Activity (Mus musculus [2]) | EC50 (Mu-type opioid receptor [3]) | concentration [4] | concentration [5] | ED50 (Mus musculus [6]) | MPE (Mus musculus [7]) | further results
1 | COc1ccc2c(c1)CN1CC[C@@](c3ccccc3)(C1)N(C)C2 | < 30 mg/kg | 59% | > 20 µM | 2.2 µM | 24.8 µM | > 30 mg/kg | 36% | 
2 | CN1Cc2ccc(O)cc2CN2CC[C@@]1(c1ccccc1)C2 |  | 100% | 2.4 µM | 1.5 µM | 19.4 µM |  |  | 
3 | CN(C)C(=O)CN1Cc2ccccc2CN2CC[C@@]1(c1ccccc1)C2 | > 30 mg/kg | 52% | > 20 µM | 4 µM | 5.3 µM |  |  | 
4 | CN1Cc2cc(O)ccc2CN2CC[C@@]1(c1ccccc1)C2 | 4.6 mg/kg |  | > 20 µM | 0.74 µM | 8.33 µM | 6.2 mg/kg |  | ID50 [8]: 5.2 mg/kg
5 | c1ccc([C@@]23CCN(Cc4ccccc4CN2)C3)cc1 | < 30 mg/kg | 72% | > 20 µM | 2.2 µM | 49.2 µM | > 30 mg/kg | 19% | 
6 | CC(=O)N1Cc2ccccc2CN2CC[C@@]1(c1ccccc1)C2 | 31 mg/kg |  | > 20 µM | 7.8 µM | 6.3 µM | > 30 mg/kg | 4.9% | 
7 | COc1cccc2c1CN(C)[C@@]1(c3ccccc3)CCN(C2)C1 | > 30 mg/kg | 9.2% | > 20 µM | 13.4 µM | 6.2 µM |  |  | 
8 | CN1Cc2ccccc2CN2CC[C@]1(c1ccccc1)C2 | 1 mg/kg |  | 3 µM | 0.75 µM |  | 1.7 mg/kg |  | Activity [9]: Toxic; concentration [10]: 15.6 µM
9 | CCC(=O)N1Cc2ccccc2CN2CC[C@@]1(c1ccccc1)C2 | ≥ 30 mg/kg | 87% | > 20 µM | 5 µM | 8.4 µM |  |  | 
10 | CN1Cc2cccc(O)c2CN2CC[C@@]1(c1ccccc1)C2 | < 30 mg/kg | 93% | > 20 µM | 0.77 µM | 13 µM | > 30 mg/kg | 6% | 
11 | O=C1N[C@@]2(c3ccccc3)CCN(Cc3ccccc31)C2 | > 30 mg/kg | 23% |  | 4.4 µM | 11.2 µM |  |  | Activity (Mus musculus [11]): inactive
12 | COc1ccc2c(c1)CN(C)[C@@]1(c3ccccc3)CCN(C2)C1 | 11 mg/kg |  | > 20 µM | 0.73 µM | 6.9 µM | 18 mg/kg |  | ID50 [8]: 14 mg/kg
13 | CCCN1Cc2ccccc2CN2CCC1(c1ccccc1)C2 (racemic) | < 3 mg/kg |  | 0.7 µM |  |  |  |  | Activity (Mus musculus [12]): 100%
14 | O=C1N[C@]2(c3ccccc3)CCN(Cc3ccccc31)C2 | < 30 mg/kg | 23% |  | 3.5 µM | 7.7 µM |  |  | 
15 | CCN1Cc2ccccc2CN2CC[C@@]1(c1ccccc1)C2 | < 30 mg/kg | 100% | 4 µM | 1.8 µM | 33.3 µM | > 10 mg/kg | 43% | 
16 | CN1Cc2ccccc2CN2CC[C@@]1(c1ccccc1)C2 | 2 mg/kg |  | > 20 µM | 0.7 µM |  | 17 mg/kg |  | ID50 [8]: 15 mg/kg; Stabilty (Cytochrome P450): 72%; Stabilty [13]: 1%; logD [14]: 3; permeability [15]: Permeable; fraction unbound [16]: 0.16; half-life [17]: 1.06 h; clearance [18]: 261 mL/min/kg; CL/F [19]: 264 mL/min/kg; bioavailability [20]: 55.2%; concentration [10]: 16.3 µM; Ki (Mu-type opioid receptor [21]): 1.33 µM
17 | COc1cccc2c1CN1CC[C@@](c3ccccc3)(C1)N(C)C2 | < 30 mg/kg | 100% | > 20 µM | 3.1 µM | 31.1 µM | 16 mg/kg |  | ID50 [8]: 19 mg/kg
18 | OCCN1Cc2ccccc2CN2CC[C@@]1(c1ccccc1)C2 | 18.2 mg/kg |  | > 20 µM | 2.7 µM | 21.8 µM | > 30 mg/kg | 18% | ID50 [8]: 37 mg/kg
19 | CN1Cc2c(O)cccc2CN2CC[C@@]1(c1ccccc1)C2 | < 30 mg/kg | 56% | > 20 µM | 1.9 µM | 18.9 µM |  |  | 
